Measurements taken from ChEMBL document CHEMBL6074716, “Discovery of SET domain-binding primary alkylamine-tethered degraders for the simultaneous degradation of NSD2-long and RE-IIBP isoforms” (Eur J Med Chem, 2025).
Converted amounts (≈) assume the structure as drawn. One block for each compound: values may come before it. The source made the active and inactive calls. No cut-off for these calls is given here.

Experiments:
KMS-11 [1] = assay: Induction of primary alkylamine-tethering degradation of NSD2 in human KMS-11 cells at 1 to 4 uM by Western blot analysis; type: cell-based; conditions: dose 1-4 µM
KMS-11 [2] = assay: Antiproliferative activity against human KMS-11 cells assessed as inhibition of cell viability incubated for 8 to 12 days by Cell Titer Glo assay; type: functional, cell-based
[3] = Metabolic stability in human liver microsomes assessed as hepatic extraction ratio at 1 uM preincubated for 5 mins followed by NADPH addition measured for 5 to 60 mins by LC-MS/MS analysis; type: ADME, Microsome; conditions: time 10-65 min, read-out: ERH
[4] = Metabolic stability in human liver microsomes assessed as half life at 1 uM preincubated for 5 mins followed by NADPH addition measured for 5 to 60 mins by LC-MS/MS analysis; type: ADME, Microsome; conditions: time 10-65 min
[5] = Solubility of compound in water measured after 4 hrs by HPLC analysis; type: physicochemical
[6] = Antiproliferative activity against HEK293T cells assessed as inhibition of cell viability incubated for 8 to 12 days by Cell Titer Glo assay; type: toxicity, cell-based, HEK-293T; conditions: human
[7] = Metabolic stability in human liver microsomes assessed as hepatic clearance at 1 uM preincubated for 5 mins followed by NADPH addition measured for 5 to 60 mins by LC-MS/MS analysis; type: ADME, Microsome; conditions: time 10-65 min
[8] = molecular target: von Hippel-Lindau disease tumor suppressor/Histone-lysine N-methyltransferase NSD2 (Homo sapiens) (UniProt O96028+P40337); assay: PROTAC activity at VHL/NSD2 in human KMS-11 cells assessed as induction of protein degradation upto 50 uM by Western blot analysis; type: cell-based
[9] = molecular target: T1, Histone-lysine N-methyltransferase NSD2 (Homo sapiens, UniProt O96028); assay: Binding affinity to CM5 chip-immobilizes NSD2 (unknown origin) assessed as dissociation constant by SPR analysis
T1 sequence (O96028 whole entry): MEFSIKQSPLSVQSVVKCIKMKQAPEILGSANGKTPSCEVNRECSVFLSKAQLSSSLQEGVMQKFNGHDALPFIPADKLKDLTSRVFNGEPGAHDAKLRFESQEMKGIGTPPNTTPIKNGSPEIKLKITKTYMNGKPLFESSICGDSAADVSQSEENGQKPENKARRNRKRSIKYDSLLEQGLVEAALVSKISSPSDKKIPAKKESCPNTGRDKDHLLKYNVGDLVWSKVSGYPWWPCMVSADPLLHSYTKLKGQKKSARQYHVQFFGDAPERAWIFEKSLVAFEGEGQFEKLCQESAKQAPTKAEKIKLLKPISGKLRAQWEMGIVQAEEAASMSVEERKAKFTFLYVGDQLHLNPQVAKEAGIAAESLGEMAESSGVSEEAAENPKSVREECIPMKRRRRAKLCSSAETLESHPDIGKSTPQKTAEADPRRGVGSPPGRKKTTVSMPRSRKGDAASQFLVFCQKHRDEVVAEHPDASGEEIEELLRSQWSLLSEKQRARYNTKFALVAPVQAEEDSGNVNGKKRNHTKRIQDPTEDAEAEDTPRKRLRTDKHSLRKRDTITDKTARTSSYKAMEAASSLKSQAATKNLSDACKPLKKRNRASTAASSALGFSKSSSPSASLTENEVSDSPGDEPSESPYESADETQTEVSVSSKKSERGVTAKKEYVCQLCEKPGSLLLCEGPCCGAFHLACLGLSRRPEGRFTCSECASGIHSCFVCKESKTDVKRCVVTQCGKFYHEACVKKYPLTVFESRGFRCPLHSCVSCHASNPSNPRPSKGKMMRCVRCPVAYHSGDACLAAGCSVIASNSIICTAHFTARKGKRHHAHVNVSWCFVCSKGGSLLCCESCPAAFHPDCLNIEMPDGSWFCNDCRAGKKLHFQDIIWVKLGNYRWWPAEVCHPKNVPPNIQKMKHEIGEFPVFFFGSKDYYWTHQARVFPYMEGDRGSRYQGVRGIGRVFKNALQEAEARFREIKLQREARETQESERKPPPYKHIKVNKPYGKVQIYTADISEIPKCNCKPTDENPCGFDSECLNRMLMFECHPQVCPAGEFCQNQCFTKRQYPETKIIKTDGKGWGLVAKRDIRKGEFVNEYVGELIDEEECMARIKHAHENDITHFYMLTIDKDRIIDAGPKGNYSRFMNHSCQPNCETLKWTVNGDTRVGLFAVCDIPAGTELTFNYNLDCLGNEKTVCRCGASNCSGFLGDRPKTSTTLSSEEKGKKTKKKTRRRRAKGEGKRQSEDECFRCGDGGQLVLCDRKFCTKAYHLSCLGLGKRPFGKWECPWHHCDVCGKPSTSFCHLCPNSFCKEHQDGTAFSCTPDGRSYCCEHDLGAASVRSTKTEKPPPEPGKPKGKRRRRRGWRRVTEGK

KMS-11 [10] = assay: Induction of primary alkylamine-tethering degradation of NSD2 in human KMS-11 cells at 0.1 to 2 uM by Western blot analysis; type: cell-based; conditions: dose 0.1-2 µM
KMS-11 [11] = assay: Induction of primary alkylamine-tethering degradation of NSD2 in human KMS-11 cells assessed as decrease in CR2 mRNA level at 1.25 to 2.5 uM incubated for 2 days by qPCR analysis; type: cell-based; conditions: dose 1.25-2.5 µM, time 2.0 day
[12] = (§1) Induction of primary alkylamine-tethering degradation of NSD2 Long isoform in human KMS-11 cells by Western blot analysis; type: cell-based
KMS-11 [13] = assay: as §1; type: cell-based; conditions: dose <= 5.0 µM
KMS-11 [14] = assay: Induction of primary alkylamine-tethering degradation of NSD2 in human KMS-11 cells assessed as decrease in CA2 mRNA level at 1.25 to 2.5 uM incubated for 2 days by qPCR analysis; type: cell-based; conditions: dose 1.25-2.5 µM, time 2.0 day
KMS-11 [15] = assay: Induction of primary alkylamine-tethering degradation of NSD2 in human KMS-11 cells assessed as decrease in PAK1 mRNA level at 1.25 to 2.5 uM incubated for 2 days by qPCR analysis; type: cell-based; conditions: dose 1.25-2.5 µM, time 2.0 day
KMS-11 [16] = assay: Induction of primary alkylamine-tethering degradation of NSD2 in human KMS-11 cells assessed as decrease in RRAS2 mRNA level at 1.25 to 2.5 uM incubated for 2 days by qPCR analysis; type: cell-based; conditions: dose 1.25-2.5 µM, time 2.0 day
KMS-11 [17] = assay: Induction of primary alkylamine-tethering degradation of NSD2 in human KMS-11 cells assessed as decrease in BACE2 mRNA level at 1.25 to 2.5 uM incubated for 2 days by qPCR analysis; type: cell-based; conditions: dose 1.25-2.5 µM, time 2.0 day
KMS-11 [18] = assay: Induction of primary alkylamine-tethering degradation of NSD3 in human KMS-11 cells at 0.1 to 2 uM by Western blot analysis; type: cell-based; conditions: dose 0.1-2 µM
[19] = molecular target: T2, Histone-lysine N-methyltransferase NSD2 (Homo sapiens) (UniProt O96028); assay: Induction of primary alkylamine-tethering degradation of NSD2 RE-IIBP isoform in human KMS-11 cells at 0.1 to 2 uM by Western blot analysis; type: cell-based; conditions: dose 0.1-2 µM
T2 sequence (whole entry): T1 sequence (O96028 whole entry)

KMS-11 [20] = assay: Induction of primary alkylamine-tethering degradation of NSD2 in human KMS-11 cells assessed as decrease in IGF2BP2 mRNA level at 1.25 to 2.5 uM incubated for 2 days by qPCR analysis; type: cell-based; conditions: dose 1.25-2.5 µM, time 2.0 day
KMS-11 [21] = assay: Induction of primary alkylamine-tethering degradation of NSD2 Long isoform in human KMS-11 cells upto 5 uM by Western blot analysis; type: cell-based
KMS-11 [22] = assay: Induction of primary alkylamine-tethering degradation of NSD2 in human KMS-11 cells at 5 uM by Western blot analysis; type: cell-based; conditions: time 6-48 hrs
KMS-11 [23] = assay: Induction of primary alkylamine-tethering degradation of NSD2 in human KMS-11 cells assessed as decrease in JAM2 mRNA level at 1.25 to 2.5 uM incubated for 2 days by qPCR analysis; type: cell-based; conditions: dose 1.25-2.5 µM, time 2.0 day
KMS-11 [24] = assay: Induction of primary alkylamine-tethering degradation of NSD1 in human KMS-11 cells at 0.1 to 2 uM by Western blot analysis; type: cell-based; conditions: dose 0.1-2 µM
[25] = molecular target: T2, Histone-lysine N-methyltransferase NSD2 (Homo sapiens); assay: Induction of primary alkylamine-tethering degradation of NSD2 RE-IIBP isoform in human KMS-11 cells upto 5 uM by Western blot analysis; type: cell-based
[26] = molecular target: T2, Histone-lysine N-methyltransferase NSD2 (Homo sapiens); assay: (§2) Induction of primary alkylamine-tethering degradation of NSD2 RE-IIBP isoform in human KMS-11 cells by Western blot analysis; type: cell-based; conditions: dose <= 5.0 µM
[27] = molecular target: T1, Histone-lysine N-methyltransferase NSD2; assay: as §2; type: cell-based
KMS-11 [28] = assay: Induction of primary alkylamine-tethering degradation of NSD2 Long isoform in human KMS-11 cells at 0.1 to 2 uM by Western blot analysis; type: cell-based; conditions: dose 0.1-2 µM
KMS-11 [29] = assay: Induction of primary alkylamine-tethering degradation of NSD2 in human KMS-11 cells assessed as decrease in MET mRNA level at 1.25 to 2.5 uM incubated for 2 days by qPCR analysis; type: cell-based; conditions: dose 1.25-2.5 µM, time 2.0 day
22Rv1 = assay: Induction of primary alkylamine-tethering degradation of NSD2 in human 22Rv1 cells assessed as decrease in H3K36 methylation upto 8 uM by Western blot analysis; type: cell-based
KMS-11 [30] = assay: Induction of primary alkylamine-tethering degradation of NSD2 in human KMS-11 cells assessed as decrease in H3K36 methylation upto 2.5 uM by Western blot analysis; type: cell-based

Sequence of von Hippel-Lindau disease tumor suppressor/Histone-lysine N-methyltransferase NSD2 (Homo sapiens) (P40337 whole entry, looked up, one chain of several): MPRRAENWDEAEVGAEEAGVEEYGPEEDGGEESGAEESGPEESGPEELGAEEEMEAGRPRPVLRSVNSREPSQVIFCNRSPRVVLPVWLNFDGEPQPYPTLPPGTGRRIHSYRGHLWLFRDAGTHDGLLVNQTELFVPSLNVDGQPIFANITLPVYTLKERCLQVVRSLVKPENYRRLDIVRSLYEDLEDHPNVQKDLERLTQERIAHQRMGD

Structure (SMILES): NCCCCCCCCCNC(=O)COc1cc(-c2cc(Cn3cnc4c(N)ncnc43)c(N3CCC[C@](N)(CC(F)F)C3)cn2)ccc1F
- Activity (KMS-11 [1]): inactive

Structure (SMILES): Nc1ncnc2c1ncn2Cc1cc(-c2ccc(F)c(OCC(=O)NCCCCCCCCCCCNC(=O)c3ccccc3)c2)ncc1N1CCC[C@](N)(CC(F)F)C1
- Activity (KMS-11 [1]): Not active; Exhibited Minimal Activity

Structure (SMILES): NCCCCCCNC(=O)COc1cc(-c2cc(Cn3cnc4c(N)ncnc43)c(N3CCC[C@](N)(CC(F)F)C3)cn2)ccc1F
- Activity (KMS-11 [1]): inactive

- hepatic extraction ratio at 1 µM [3]: 0.898
- half-life at 1 µM [4]: 22.3 min
- solubility at 4 h [5]: 490 µg/mL (≈ 979 µM)
- CLhep predicted at 1 µM [7]: 18.6 mL/min/kg
Structure (SMILES): Nc1ncnc2c1ncn2Cc1cc(-c2ccc(F)c(F)c2)ncc1N1CCC[C@](N)(CC(F)F)C1
- IC50 (KMS-11 [2]): 4.7 µM
- IC50 [6]: 8.45 µM

Structure (SMILES): NCCCCCNC(=O)COc1cc(-c2cc(Cn3cnc4c(N)ncnc43)c(N3CCC[C@](N)(CC(F)F)C3)cn2)ccc1F
- Activity (KMS-11 [1]): inactive

Structure (SMILES): NCCCNC(=O)COc1cc(-c2cc(Cn3cnc4c(N)ncnc43)c(N3CCC[C@](N)(CC(F)F)C3)cn2)ccc1F
- Activity (KMS-11 [1]): inactive

- Activity [8]: Active
Structure (SMILES): Cc1ncsc1-c1ccc([C@H](C)NC(=O)[C@@H]2C[C@@H](O)CN2C(=O)[C@@H](NC(=O)CCCCCCCCCCCNC(=O)COc2cc(-c3cc(Cn4cnc5c(N)ncnc54)c(N4CCCC(N)(CC(F)F)C4)cn3)ccc2F)C(C)(C)C)cc1 (some centres not stated)

Structure (SMILES): NCCCCCCCNC(=O)COc1cc(-c2cc(Cn3cnc4c(N)ncnc43)c(N3CCC[C@](N)(CC(F)F)C3)cn2)ccc1F
- Activity (KMS-11 [1]): inactive

- Kd [9]: > 100 µM
Structure (SMILES): NCCCCCCCCCCCNC(=O)COc1cc(-c2cc(Cn3cnc4c(N)ncnc43)c(N3CCC[C@@](N)(CC(F)F)C3)cn2)ccc1F
- Activity (KMS-11 [10]): inactive

Structure (SMILES): NCCCCCCCCCCCNC(=O)COc1cc(-c2cc(Cn3cnc4c(N)ncnc43)c(N3CCCC(N)(CC(F)F)C3)cn2)ccc1F (racemic)
- Activity (KMS-11 [1]): Active

Structure (SMILES): CNCCCCCCCCCCCNC(=O)COc1cc(-c2cc(Cn3cnc4c(N)ncnc43)c(N3CCC[C@](N)(CC(F)F)C3)cn2)ccc1F
- Activity (KMS-11 [1]): Not active; Exhibited Minimal Activity

Structure (SMILES): NCCCCCCCCCCCCNC(=O)COc1cc(-c2cc(Cn3cnc4c(N)ncnc43)c(N3CCC[C@](N)(CC(F)F)C3)cn2)ccc1F
- Activity (KMS-11 [1]): inactive

- DC50 [12]: 1.48 µM
- hepatic extraction ratio at 1 µM [3]: 0.973
- Kd [9]: 8.77 µM
- half-life at 1 µM [4]: 5.37 min
- Activity [19]: Active
- solubility at 4 h [5]: 470 µg/mL (≈ 648 µM)
- CLhep predicted at 1 µM [7]: 20.1 mL/min/kg
- Activity [25]: 80%
- Activity [26]: Dose-dependent-effect
- DC50 [27]: 0.8 µM
Structure (SMILES): NCCCCCCCCCCCNC(=O)COc1cc(-c2cc(Cn3cnc4c(N)ncnc43)c(N3CCC[C@](N)(CC(F)F)C3)cn2)ccc1F
- Activity (KMS-11 [11]): Active
- Activity (KMS-11 [13]): Dose-dependent-effect
- Activity (KMS-11 [14]): Active
- Activity (KMS-11 [15]): Active
- IC50 (KMS-11 [2]): 0.9 µM
- Activity (KMS-11 [16]): Active
- Activity (KMS-11 [17]): Active
- Activity (KMS-11 [10]): Active
- Activity (KMS-11 [18]): inactive
- Activity (KMS-11 [20]): Active
- Activity (KMS-11 [21]): 80%
- IC50 [6]: > 100 µM
- Activity (KMS-11 [22]): Time-dependent-effect
- Activity (KMS-11 [23]): Active
- Activity (KMS-11 [24]): Not active; Exhibited Moderate Degradation
- Activity (KMS-11 [28]): Active
- Activity (KMS-11 [29]): Active
- Activity (22Rv1): Active
- Activity (KMS-11 [30]): Active
